Source: article PMC11702666, “The anti-COVID-19 drug Paxlovid crosses biological barriers of the placenta and brain in rats” (npj Viruses, 2024)
Entries after “also recorded” stand apart in the source; their conditions may differ. Like-named read-outs stand apart in the source and are kept apart here.

Columns and labels:
[1] = for nirmatrelvir concentration in dialysate sample: 60 min after nirmatrelvir 15 mg/kg i.v., representative sample
in vivo [2] = conditions: female, Sprague-Dawley, rat, iv, pregnant rats; for AUC(0-t): AUClast; for Kp: AUCtissue/AUCblood (maternal blood-to-tissue transfer ratio); for clearance: CL (clearance); for MRT: MRT (mean residence time); for half-life: t1/2 (elimination half-life)
in vivo [3] = conditions: male, Sprague-Dawley, rat, iv, 15 mg/kg; for AUC(0-t): AUClast; for AUC(0-t) / clearance / Cmax / MRT / Tmax / half-life: male rats; for clearance: CL (clearance); for MRT: MRT (mean residence time); for half-life: t1/2 (elimination half-life)
[4] = PBPK model LeiCNS-PK3.0; recommended dosing regimen; cited from earlier work
zebrafish embryo = zebrafish embryo model; therapeutic doses in humans; cited from earlier work
in vivo [5] = conditions: female, Sprague-Dawley, rat, iv, 15 mg/kg
[6] = 15 mg/kg, amniotic fluid, nirmatrelvir 15 mg/kg i.v. alone
[7] = 15 mg/kg, amniotic fluid, nirmatrelvir 15 mg/kg i.v. plus ritonavir 7 mg/kg i.v.
[8] = 15 mg/kg, fetus, nirmatrelvir 15 mg/kg i.v. alone
[9] = 15 mg/kg, fetus, nirmatrelvir 15 mg/kg i.v. plus ritonavir 7 mg/kg i.v.
[10] = 15 mg/kg, maternal blood, nirmatrelvir 15 mg/kg i.v. alone
[11] = 15 mg/kg, maternal blood, nirmatrelvir 15 mg/kg i.v. plus ritonavir 7 mg/kg i.v.
[12] = 15 mg/kg, placenta, nirmatrelvir 15 mg/kg i.v. alone
[13] = 15 mg/kg, placenta, nirmatrelvir 15 mg/kg i.v. plus ritonavir 7 mg/kg i.v.
[14] = blood, nirmatrelvir 15 mg/kg i.v. alone
[15] = blood, nirmatrelvir 15 mg/kg i.v. plus ritonavir 7 mg/kg i.v.
[16] = brain, nirmatrelvir 15 mg/kg i.v. alone
[17] = brain, nirmatrelvir 15 mg/kg i.v. plus ritonavir 7 mg/kg i.v.

Which “nirmatrelvir concentration in dialysate sample” value ([1]; blood dialysate) does the source give for CC(C)(C)[C@H](NC(=O)C(F)(F)F)C(=O)N1C[C@H]2[C@@H]([C@H]1C(=O)N[C@H](C#N)C[C@@H]1CCNC1=O)C2(C)C [Nirmatrelvir] here?
The value was 78.01 ng/mL.

What about the “nirmatrelvir concentration in dialysate sample” value ([1]; brain dialysate) of the same molecule?
The value was 36.36 ng/mL.

What about the “protein unbound nirmatrelvir concentrations in blood and brain versus EC90” value ([1]; male rats) of the same molecule?
Its value is “all higher than the EC90”.

And the AUC(0-t) (in vivo [2]; [6])?
The AUC(0-t) was 4740 ng·h/mL.

What about the AUC(0-t) (in vivo [2]; [7]) of the same molecule?
The AUC(0-t) was 17200 ng·h/mL.

What about the AUC(0-t) (in vivo [2]; [8]) of the same molecule?
The AUC(0-t) was 2830 ng·h/mL.

And the AUC(0-t) (in vivo [2]; [9])?
Its AUC(0-t) is 5720 ng·h/mL.

What about the AUC(0-t) (in vivo [2]; [10]) of the same molecule?
Its AUC(0-t) is 52200 ng·h/mL.

And the AUC(0-t) (in vivo [2]; [11])?
Its AUC(0-t) is 120000 ng·h/mL.

What about the AUC(0-t) (in vivo [2]; [12]) of the same molecule?
Its AUC(0-t) is 8010 ng·h/mL.

And the AUC(0-t) (in vivo [2]; [13])?
The AUC(0-t) was 18000 ng·h/mL.

And the Kp (in vivo [2]; [6])?
The Kp was 0.12 ± 0.03.

And the Kp (in vivo [2]; [8])?
Its Kp is 0.06 ± 0.01.

And the Kp (in vivo [2]; [12])?
Its Kp is 0.15 ± 0.03.

What about the clearance (in vivo [2]; [10]) of the same molecule?
The clearance was 5 ± 0.4 mL/min/kg.

What about the clearance (in vivo [2]; [11]) of the same molecule?
The clearance was 2.14 ± 0.15 mL/min/kg.

And the Cmax (in vivo [2]; [6])?
The Cmax was 1840 ± 490 ng/mL.

And the Cmax (in vivo [2]; [7])?
Its Cmax is 6590 ± 1840 ng/mL.

What about the Cmax (in vivo [2]; [8]) of the same molecule?
Its Cmax is 960 ± 190 ng/mL.

And the Cmax (in vivo [2]; [9])?
Its Cmax is 1720 ± 600 ng/mL.

What about the Cmax (in vivo [2]; [10]) of the same molecule?
Its Cmax is 156000 ± 24000 ng/mL.

And the Cmax (in vivo [2]; [11])?
The Cmax was 171000 ± 52300 ng/mL.

What about the Cmax (in vivo [2]; [12]) of the same molecule?
Its Cmax is 3560 ± 320 ng/mL.

And the Cmax (in vivo [2]; [13])?
Its Cmax is 4400 ± 820 ng/mL.

What about the MRT (in vivo [2]; [6]) of the same molecule?
The MRT was 4.83 h.

What about the MRT (in vivo [2]; [7]) of the same molecule?
The MRT was 7.62 h.

What about the MRT (in vivo [2]; [8]) of the same molecule?
The MRT was 5.13 h.

And the MRT (in vivo [2]; [9])?
The MRT was 21.1 h.

What about the MRT (in vivo [2]; [10]) of the same molecule?
Its MRT is 0.8 h.

And the MRT (in vivo [2]; [11])?
Its MRT is 3.22 h.

And the MRT (in vivo [2]; [12])?
The MRT was 2.53 h.

And the MRT (in vivo [2]; [13])?
The MRT was 6.92 h.

What about the Tmax (in vivo [2]; [6]) of the same molecule?
Its Tmax is 1.05 h.

And the Tmax (in vivo [2]; [7])?
The Tmax was 3.6 h.

What about the Tmax (in vivo [2]; [8]) of the same molecule?
Its Tmax is 1.17 h.

And the Tmax (in vivo [2]; [9])?
Its Tmax is 3.93 h.

What about the Tmax (in vivo [2]; [12]) of the same molecule?
The Tmax was 0.667 h.

And the Tmax (in vivo [2]; [13])?
The Tmax was 2.2 h.

And the half-life (in vivo [2]; [6])?
Its half-life is 2.78 ± 0.683 h.

What about the half-life (in vivo [2]; [7]) of the same molecule?
Its half-life is 4.02 ± 1.75 h.

And the half-life (in vivo [2]; [8])?
Its half-life is 3.03 ± 1 h.

And the half-life (in vivo [2]; [9])?
The half-life was 13.7 ± 9.1 h.

And the half-life (in vivo [2]; [10])?
The half-life was 0.25 ± 0.0167 h.

What about the half-life (in vivo [2]; [11]) of the same molecule?
The half-life was 0.667 ± 0.117 h.

What about the half-life (in vivo [2]; [13]) of the same molecule?
Its half-life is 4.27 ± 0.65 h.

What about the Kp (in vivo [2]; amniotic fluid, nirmatrelvir 15 mg/kg i.v. plus ritonavir 7 mg/kg i.v.) of the same molecule?
Its Kp is 0.2 ± 0.07.

What about the Kp (in vivo [2]; fetus, nirmatrelvir 15 mg/kg i.v. plus ritonavir 7 mg/kg i.v.) of the same molecule?
The Kp was 0.06 ± 0.02.

And the Kp (in vivo [2]; placenta, nirmatrelvir 15 mg/kg i.v. plus ritonavir 7 mg/kg i.v.)?
The Kp was 0.13 ± 0.02.

What about the Kp (in vivo [3]) of the same molecule?
The Kp was 0.26 ± 0.03.

What about the AUC(0-t) (in vivo [3]; [14]) of the same molecule?
Its AUC(0-t) is 12900 ng·h/mL.

And the AUC(0-t) (in vivo [3]; [15])?
Its AUC(0-t) is 80500 ng·h/mL.

What about the AUC(0-t) (in vivo [3]; [16]) of the same molecule?
Its AUC(0-t) is 3540 ng·h/mL.

And the AUC(0-t) (in vivo [3]; [17])?
The AUC(0-t) was 5190 ng·h/mL.

And the clearance (in vivo [3]; [14])?
Its clearance is 21 ± 2.8 mL/min/kg.

What about the clearance (in vivo [3]; [15]) of the same molecule?
Its clearance is 3.16 ± 0.18 mL/min/kg.

What about the Cmax (in vivo [3]; [14]) of the same molecule?
The Cmax was 26500 ± 4450 ng/mL.

What about the Cmax (in vivo [3]; [15]) of the same molecule?
Its Cmax is 94500 ± 27600 ng/mL.

What about the Cmax (in vivo [3]; [16]) of the same molecule?
The Cmax was 2520 ± 320 ng/mL.

And the Cmax (in vivo [3]; [17])?
The Cmax was 2020 ± 350 ng/mL.

And the MRT (in vivo [3]; [14])?
The MRT was 0.717 h.

What about the MRT (in vivo [3]; [15]) of the same molecule?
The MRT was 2.32 h.

And the MRT (in vivo [3]; [16])?
The MRT was 1.53 h.

What about the MRT (in vivo [3]; [17]) of the same molecule?
Its MRT is 3.4 h.

And the Tmax (in vivo [3]; [16])?
The Tmax was 0.333 h.

What about the Tmax (in vivo [3]; [17]) of the same molecule?
The Tmax was 0.45 h.

And the half-life (in vivo [3]; [15])?
Its half-life is 0.833 ± 0.15 h.

What about the half-life (in vivo [3]; [16]) of the same molecule?
Its half-life is 1.1 ± 0.117 h.

What about the half-life (in vivo [3]; [17]) of the same molecule?
The half-life was 2.05 ± 0.367 h.

What about the “predicted brain penetration / effective concentrations against SARS-CoV-2” value [4] of the same molecule?
Its value is “achieves effective concentrations against SARS-CoV-2 in human brain cells”.

What about the “increase of Cmax in blood, combined vs alone” value (nonpregnant female rats, blood, coadministration with ritonavir vs nirmatrelvir alone) of the same molecule?
Its value is “threefold”.

What about the “protein unbound nirmatrelvir concentrations in blood and brain versus EC90” value (nonpregnant rats) of the same molecule?
The value was “all higher than the EC90”.

And the “survival rates and morphological defects” value (zebrafish embryo)?
The value was “does not affect survival rates or induce morphological defects; also recorded: did not affect survival rates or induce morphological defects”.

What about the Kp (in vivo [5]) of the same molecule?
The Kp was 0.21 ± 0.04.

What about the AUC(0-t) (in vivo [5]; AUClast, nonpregnant female rats, blood, nirmatrelvir 15 mg/kg i.v. alone) of the same molecule?
The AUC(0-t) was 16800 ng·h/mL.
